# Test results as given in patent publication US20080287534A1, “Method for Controlling Insect Pests on Plants” (priority 2005, published 2008).
# Experiments:
# Assay type in all cases: in vivo
# [1] = tested on: cabbage looper (Trichoplusia ni); assay: Test B: control of cabbage looper by soil application to cabbage plants, excised-leaf feeding, visual mortality; settings: 96 h, read-out: % Mortality (Observed)
# Procedure: (§1) For evaluating control of cabbage looper (Trichoplusia ni) and tobacco budworm (Heliothis virescens), methomyl was in liquid formulation as Lannate® LV (29% of active ingredient). Oxamyl was in liquid formulation as Vydate® L (24% of active ingredient).
# (§2) The test compounds were dissolved in water. Enough water was added to make 57 ppm of the Lannate® LV and 250 and 500 ppm of active ingredient for Vydate® L. To obtain the desired mixture concentrations of each compound, twice the desired concentration of each of the two mixture compounds were mixed together in equal volumes.
# (§3) For the cabbage looper trial, diluted solutions (50 mL) of the test compounds were applied to the soil surface of five-week-old cabbage plants at the desired concentrations, corresponding to 135 g a.i./ha (g active ingredient/hectare) of methomyl and 404 and 807 g a.i./ha of oxamyl. For the tobacco budworm trial, diluted solutions (50 mL) of the test compounds were applied to the soil surface of five-week-old tomato plants at the desired concentrations, corresponding to 92 g a.i./ha (g active ingredient/hectare) of methomyl and 404 and 807 g a.i./ha of oxamyl. The plants were maintained in a greenhouse for 24 h. From each plant, leaves were excised, cut into pieces, and placed singly into 5.5 cm-by-3.5 cm cell of a sixteen-cell plastic tray. Each cell contained solidified agar (3 to 5 mL) to prevent desiccation. A single 4-day old insect larva was placed in each cell, with two trays per treatment. Trays were held in a growth chamber at 25° C., 16-hour light/8-hour dark photoperiod, 60% relative humidity for 4 days.
# [2] = tested on: beet armyworm (Spodoptera exigua); assay: Test A: control of beet armyworm by soil application to tomato plants, excised-leaf feeding, visual mortality
# Procedure: For evaluating control of beet armyworm (Spodoptera exigua), methomyl was in liquid formulation as Lannate® LV (29% of active ingredient). Oxamyl was in liquid formulation as Vydate® L (24% active ingredient).
# The test compounds were dissolved in water. Enough water was added to make 29 ppm of active ingredient for Lannate® LV and 500 ppm of active ingredient for Vydate® L. To obtain the desired mixture concentrations of each compound, twice the desired concentration of each of the two mixture partner compounds were mixed together in equal volumes.
# Diluted solutions (50 mL) of the test compounds were applied to the soil surface of five-week-old tomato plants at the desired concentration, corresponding to 47 g a.i./ha (g active ingredient/hectare) of methomyl and 807 g a.i./ha of oxamyl. The plants were maintained in a greenhouse for 24 h. From each plant, leaves were excised, cut into pieces, and placed singly into 5.5 cm-by-3.5 cm cell of a sixteen-cell plastic tray. Each cell contained solidified agar (3 to 5 mL) to prevent desiccation. A single 4-day old insect larva was placed in each cell, with one tray per treatment. Trays were held in a growth chamber at 25° C., 16-hour light/8-hour dark photoperiod, 60% relative humidity for 4 days.
# [3] = tested on: tobacco budworm (Heliothis virescens); assay: Test B: control of tobacco budworm by soil application to tomato plants, excised-leaf feeding, visual mortality; settings: 96 h, read-out: % Mortality (Observed)
# Procedure: as §1, §2, §3
Compound,"mortality at 135 g/ha ([1]; methomyl 135 g a.i./ha, soil application, five-week-old cabbage plants) [%]","mortality at 47 g/ha ([2]; Spodoptera exigua, methomyl 47 g a.i./ha, soil application, five-week-old tomato plants, evaluated at 96 h, read-out: % mortality (observed)) [%]","mortality at 92 g/ha ([3]; methomyl 92 g a.i./ha, soil application, five-week-old tomato plants) [%]",mortality at 404 g/ha ([1]; soil) [%],mortality at 807 g/ha ([1]; soil) [%],"mortality at 807 g/ha ([2]; Spodoptera exigua, soil, 96 h, read-out: % mortality (observed)) [%]","% mortality (observed) ([2]; oxamyl 807 g a.i./ha, soil application, five-week-old tomato plants, evaluated at 96 h)",mortality at 404 g/ha ([3]; soil) [%],mortality at 807 g/ha ([3]; soil) [%]
"CNC(=O)ON=C(C)SC [Methomyl, methyl N-[[(methylamino)carbonyl]oxy]-ethanimidothioate]",75,44,41,–,–,–,–,–,–
"CNC(=O)ON=C(SC)C(=O)N(C)C [Oxamyl, methyl 2-(dimethylamino)-N-[[(methylamino)-carbonyl]oxy]-2-oxoethanimidothioate]",–,–,–,16,38,0,no mortality,6,13
